Experimental data as given in US7582611B2, “Motilide compounds” (Pfizer Inc., priority 2005, dated 2009).
In brackets after ≈: the same amount, converted by molar mass. Read-outs that look alike come from different tables or passages of the source.

Key:
[1] = biological target: T1, Motilin Receptor (Oryctolagus cuniculus, UniProt G1T803); assay: Tissue based assay for motilin agonist potency (rabbit duodenum contractility); type: cell-based
T1 construct: strips of longitudinal smooth muscle were sliced from the segments; from tissue; host or cells: rabbit duodenum longitudinal smooth muscle strips
Method: The motilin agonist potencies of compounds of this invention were evaluated using a tissue based assay, using rabbit duodenum tissue-based contractility assay, generally following the procedure of Depoortere et al., J. Gastrointestinal Motility, 1, 150-159 (1989), the disclosure of which is incorporated herein by reference. Briefly, this method measures the ability of a compound to induce contractions in rabbit duodenal tissue, a motilin receptor-bearing tissue contractilely responsive to motilin.
Strips of rabbit duodenum were tested and qualified for use in the assay by as follows. Segments of rabbit duodenum, 20-30 cm distal to the pylorus were split longitudinally. The mucosa was removed and 2×2×15 mm strips of longitudinal smooth muscle were sliced from the segments. The strips were bathed in oxygenated Krebs solution at 37° C., with 1.5 g of tension, and contractions measured auxotonically.
The carbachol was then washed away by changing the organ bath buffer twice. The strips were washed again 20±5 minutes following the carbachol contraction. Following this last wash a dose response study was initiated within 10±5 min. Each compound tested was dissolved in dimethylsulfoxide (DMSO) to a final concentration of 10 mM. A series of seven 10× serial dilutions in water was prepared, so that the concentration of the seventh serial dilution was 1.0×10^−6 mM. The first through fifth serial dilutions of the compound were applied, starting with 200 μL of the most dilute solution. After each application, there was a wait of 2±0.5 min, until the response was stable, before the application of the next dose (the next higher concentration serial dilution). The dose was increased in 10-fold increments until a small response was observed. Subsequent doses were the increased in 2- to 5-fold increments, until the maximum response was obtained. At 2±0.5 min after the last drug addition, the strips were dosed with 1 μM carbachol.
The EC50 (concentration producing a half-maximal effect) was calculated as follows. The basal tension was subtracted from the compound-induced tension for each reading. The data points were normalized against the response obtained from 1 μM carbachol at the end of the experiment. The concentration of compound was plotted against the response and fitted to the following equation: R=(Rmax·C)/(EC50+C) where R is the contraction response, Rmax is the maximal contraction response, and C is the concentration of compound. Both R and Rmax are expressed as a fraction of the 1 μM carbachol contraction and range from 0 to 1.

[2] = test system: Streptococcus pneumoniae ATCC 6301; assay: Evaluation of antibacterial activity (MIC, serial dilutions on 96-well microtiter plates); type: cell-based; details: ATCC6301, read-out: Antibacterial Activity (MIC, μg/mL)
[3] = rabbit duodenum strips, contraction normalized to 1 μM carbachol, read-out: Motilin Receptor Agonist Activity (EC50)

T1 sequence (G1T803 1-400): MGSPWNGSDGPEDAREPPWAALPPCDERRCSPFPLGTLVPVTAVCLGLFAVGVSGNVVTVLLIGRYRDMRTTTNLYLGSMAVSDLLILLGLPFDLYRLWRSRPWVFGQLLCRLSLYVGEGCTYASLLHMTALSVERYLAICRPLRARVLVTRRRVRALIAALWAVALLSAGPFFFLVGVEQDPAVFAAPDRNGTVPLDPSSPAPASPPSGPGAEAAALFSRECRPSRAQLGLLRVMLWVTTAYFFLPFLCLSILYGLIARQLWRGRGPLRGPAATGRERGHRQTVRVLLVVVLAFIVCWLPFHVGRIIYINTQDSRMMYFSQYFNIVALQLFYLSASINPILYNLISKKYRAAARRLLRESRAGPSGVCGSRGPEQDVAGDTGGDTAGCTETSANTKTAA

| EC50 [1, 3] [µM] | MIC [2] [µg/mL] | Structure (SMILES) | EC50 [1] [µM] |
| --- | --- | --- | --- |
| 0.007 | 64 (≈ 91.7 µM) | CC[C@H]1OC(=O)[C@H](C)[C@@H](OC2C[C@@](C)(OC)C[C@H](C)O2)[C@H](C)[C@@H](OC2O[C@H](C)C[C@H](N(C)CC)[C@H]2O)[C@@]2(C)CC(C)=C(O2)[C@H](C)[C@@H](O)[C@H]1C (stereo partly drawn) [ABT-229, reference compound] |  |
| 0.028 | 128 (≈ 146 µM) | CC[C@H]1OC(=O)[C@H](C)[C@@H](O[C@H]2C[C@@](C)(OC)[C@@H](O)[C@H](C)O2)[C@H](C)[C@@H](O[C@@H]2O[C@H](C)C[C@H](N(C)C(C)C)[C@H]2O)[C@](C)(O)C[C@@H](C)[C@H](OCC(=O)NC2CCC2)[C@H](C)[C@@H](O)[C@]1(C)O [Compound A-45] |  |
| 0.14 | 128 (≈ 148 µM) | CC[C@H]1OC(=O)[C@H](C)[C@@H](O[C@H]2C[C@@](C)(OC)[C@@H](O)[C@H](C)O2)[C@H](C)[C@@H](O[C@@H]2O[C@H](C)C[C@H](N(C)C(C)C)[C@H]2O)[C@](C)(O)C[C@@H](C)[C@H](OCC(=O)NC(C)C)[C@H](C)[C@@H](O)[C@]1(C)O [Compound A-53] |  |
| 1.1 | 128 (≈ 153 µM) | CC[C@H]1OC(=O)[C@H](C)[C@@H](O[C@H]2C[C@@](C)(OC)[C@@H](O)[C@H](C)O2)[C@H](C)[C@@H](O[C@@H]2O[C@H](C)C[C@H](N(C)C[C@H](C)O)[C@H]2O)[C@](C)(O)C[C@@H](C)[C@H](OCCOC)[C@H](C)[C@@H](O)[C@]1(C)O [Compound A-6] |  |
| 0.09 | > 128 | CC[C@H]1OC(=O)[C@H](C)[C@@H](O[C@H]2C[C@@](C)(OC)[C@@H](O)[C@H](C)O2)[C@H](C)[C@@H](O[C@@H]2O[C@H](C)C[C@H](N(C)C(C)C)[C@H]2O)[C@](C)(O)C[C@@H](C)[C@H](OCC(=O)NC)[C@H](C)[C@@H](O)[C@H]1C [Compound A-71] |  |
| 0.22 | > 128 | CCNC(=S)NCCO[C@@H]1[C@H](C)[C@@H](O)[C@](C)(O)[C@@H](CC)OC(=O)[C@H](C)[C@@H](O[C@H]2C[C@@](C)(OC)[C@@H](O)[C@H](C)O2)[C@H](C)[C@@H](O[C@@H]2O[C@H](C)C[C@H](N(C)C(C)C)[C@H]2O)[C@](C)(O)C[C@H]1C [Compound A-67] |  |
| 0.045 | > 128 | CC[C@@H](O)[C@@](C)(O)[C@@H]1OC(=O)[C@@H](C)[C@H](C[C@H]2C[C@@](C)(OC)[C@@H](O)[C@H](C)O2)[C@H](C)[C@@H](OC2O[C@H](C)C[C@H](N(C)C(C)C)[C@H]2O)[C@@]2(C)CC(C)=C(O2)[C@@H]1C (stereo partly drawn) [KC-11458, reference compound] |  |
| 0.19 | 128 (≈ 154 µM) | CC[C@H]1OC(=O)[C@H](C)[C@@H](O[C@H]2C[C@@](C)(OC)C[C@H](C)O2)[C@H](C)[C@@H](O[C@@H]2O[C@H](C)C[C@H](N(C)C(C)C)[C@H]2O)[C@](C)(O)C[C@@H](C)[C@H](OCC(=O)N(C)C)[C@H](C)[C@@H](O)[C@]1(C)O [Compound A-60] |  |
| 0.063 | 128 (≈ 152 µM) | CC[C@H]1OC(=O)[C@H](C)[C@@H](O[C@H]2C[C@@](C)(OC)[C@@H](O)[C@H](C)O2)[C@H](C)[C@@H](O[C@@H]2O[C@H](C)C[C@H](N(C)C(C)C)[C@H]2O)[C@](C)(O)C[C@@H](C)[C@H](OCc2ncc[nH]2)[C@H](C)[C@@H](O)[C@]1(C)O [Compound A-62] |  |
| 0.33 | 64 (≈ 71.5 µM) | CC[C@H]1OC(=O)[C@H](C)[C@@H](O[C@H]2C[C@@](C)(OC)[C@@H](O)[C@H](C)O2)[C@H](C)[C@@H](O[C@@H]2O[C@H](C)C[C@H](N(C)C(C)C)[C@H]2O)[C@](C)(O)C[C@@H](C)[C@H](NS(=O)(=O)C(F)(F)F)[C@H](C)[C@@H](O)[C@]1(C)O [Compound A-43] |  |
| 0.12 | 128 (≈ 148 µM) | CC[C@H]1OC(=O)[C@H](C)[C@@H](O[C@H]2C[C@@](C)(OC)[C@@H](O)[C@H](C)O2)[C@H](C)[C@@H](O[C@@H]2O[C@H](C)C[C@H](N(C)C(C)C)[C@H]2O)[C@](C)(O)C[C@@H](C)[C@H](OCC(=O)NCCO)[C@H](C)[C@@H](O)[C@]1(C)O [Compound A-34] |  |
| 0.091 | 128 (≈ 147 µM) | CC[C@H]1OC(=O)[C@H](C)[C@@H](O[C@H]2C[C@@](C)(OC)[C@@H](O)[C@H](C)O2)[C@H](C)[C@@H](O[C@@H]2O[C@H](C)C[C@H](N(C)C(C)C)[C@H]2O)[C@](C)(O)C[C@@H](C)[C@H](OS(=O)(=O)N(C)C)[C@H](C)[C@@H](O)[C@]1(C)O [Compound A-19] |  |
| 0.054 | 64 (≈ 79.2 µM) | CC[C@H]1OC(=O)[C@H](C)[C@@H](O[C@H]2C[C@@](C)(OC)[C@@H](O)[C@H](C)O2)[C@H](C)[C@@H](O[C@@H]2O[C@H](C)C[C@H](N(C)C(C)C)[C@H]2O)[C@](C)(O)C[C@@H](C)[C@H](OCCO)[C@H](C)[C@@H](O)[C@]1(C)O [Compound A-3] |  |
| 0.011 | 128 (≈ 169 µM) | CC[C@H]1OC(=O)[C@H](C)[C@@H](O[C@H]2C[C@@](C)(OC)[C@@H](O)[C@H](C)O2)[C@H](C)[C@@H](O[C@@H]2O[C@H](C)C[C@H](N(C)C(C)C)[C@H]2O)[C@@]2(C)CC(C)=C(O2)[C@H](C)C(=O)[C@]1(C)OC [GM-611, reference compound] |  |
| 0.17 | > 128 | CC[C@H]1OC(=O)[C@H](C)[C@@H](O[C@H]2C[C@@](C)(OC)[C@@H](O)[C@H](C)O2)[C@H](C)[C@@H](O[C@@H]2O[C@H](C)C[C@H](N(C)C(C)C)[C@H]2O)[C@](C)(O)C[C@@H](C)[C@H](OCCCCCC(N)=O)[C@H](C)[C@@H](O)[C@]1(C)O [Compound A-50] |  |
| 0.14 | 64 (≈ 82.1 µM) | CC[C@H]1OC(=O)[C@H](C)[C@@H](O[C@H]2C[C@@](C)(OC)[C@@H](O)[C@H](C)O2)[C@H](C)[C@@H](O[C@@H]2O[C@H](C)C[C@H](N(C)CCO)[C@H]2O)[C@](C)(O)C[C@@H](C)[C@H](OC)[C@H](C)[C@@H](O)[C@]1(C)O [Compound A-2] |  |
| 0.86 | > 128 | CC[C@H]1OC(=O)[C@H](C)[C@@H](O[C@H]2C[C@@](C)(OC)[C@@H](O)[C@H](C)O2)[C@H](C)[C@@H](O[C@@H]2O[C@H](C)C[C@H](N(C)C3CCC3)[C@H]2O)[C@](C)(O)C[C@@H](C)[C@H](OC(C)=O)[C@H](C)[C@@H](O)[C@]1(C)O [Compound A-24] |  |
| 0.29 | 128 (≈ 149 µM) | CC[C@H]1OC(=O)[C@H](C)[C@@H](O[C@H]2C[C@@](C)(OC)[C@@H](O)[C@H](C)O2)[C@H](C)[C@@H](O[C@@H]2O[C@H](C)C[C@H](N(C)C(C)C)[C@H]2O)[C@](C)(O)C[C@@H](C)[C@H](OCc2nccs2)[C@H](C)[C@@H](O)[C@]1(C)O [Compound A-29] |  |
| 0.22 | > 128 | CC[C@H]1OC(=O)[C@H](C)[C@@H](O[C@H]2C[C@@](C)(OC)[C@@H](O)[C@H](C)O2)[C@H](C)[C@@H](O[C@@H]2O[C@H](C)C[C@H](N(C)C3CCC3)[C@H]2O)[C@](C)(O)C[C@@H](C)[C@H](OCC(N)=O)[C@H](C)[C@@H](O)[C@]1(C)O [Compound A-13] |  |
| 0.05 | 128 (≈ 146 µM) | CC[C@H]1OC(=O)[C@H](C)[C@@H](O[C@H]2C[C@@](C)(OC)[C@@H](O)[C@H](C)O2)[C@H](C)[C@@H](O[C@@H]2O[C@H](C)C[C@H](N(C)C(C)C)[C@H]2O)[C@](C)(O)C[C@@H](C)[C@H](OCC(=O)NCCOC)[C@H](C)[C@@H](O)[C@]1(C)O [Compound A-63] |  |
| 0.51 | > 128 | CC[C@H]1OC(=O)[C@H](C)[C@@H](O[C@H]2C[C@@](C)(OC)[C@@H](O)[C@H](C)O2)[C@H](C)[C@@H](O[C@@H]2O[C@H](C)C[C@H](N(C)C3CCC3)[C@H]2O)[C@](C)(O)C[C@@H](C)[C@H](OCC(=O)NC)[C@H](C)[C@@H](O)[C@]1(C)O [Compound A-51] |  |
| 0.052 | 64 (≈ 77.9 µM) | CC[C@H]1OC(=O)[C@H](C)[C@@H](O[C@H]2C[C@@](C)(OC)[C@@H](O)[C@H](C)O2)[C@H](C)[C@@H](O[C@@H]2O[C@H](C)C[C@H](N(C)C(C)C)[C@H]2O)[C@](C)(O)C[C@@H](C)[C@H](OCC(N)=O)[C@H](C)[C@@H](O)[C@]1(C)O [Compound A-12] |  |
| 0.031 | 128 (≈ 149 µM) | CC[C@H]1OC(=O)[C@H](C)[C@@H](O[C@H]2C[C@@](C)(OC)[C@@H](O)[C@H](C)O2)[C@H](C)[C@@H](O[C@@H]2O[C@H](C)C[C@H](N(C)C(C)C)[C@H]2O)[C@](C)(O)C[C@@H](C)[C@H](OCC(=O)NC2CC2)[C@H](C)[C@@H](O)[C@]1(C)O [Compound A-46] |  |

| Structure (SMILES) | EC50 [1, 3] [µM] | MIC [2] [µg/mL] | EC50 [1] [µM] |
| --- | --- | --- | --- |
| CC[C@H]1OC(=O)[C@H](C)[C@@H](O[C@H]2C[C@@](C)(OC)[C@@H](O)[C@H](C)O2)[C@H](C)[C@@H](O[C@@H]2O[C@H](C)C[C@H](N(C)C)[C@H]2O)[C@](C)(O)C[C@@H](C)C(=O)[C@H](C)[C@@H](O)[C@]1(C)O [Erythromycin A, reference compound] |  | 0.0025 (≈ 0.00341 µM) | 1.2 |
